The values that follow come from US8772305B2, “Substituted pyridinyl-pyrimidines and their use as medicaments” (Boehringer Ingelheim International GmbH, priority 2011, dated 2014).

The assay concerns the target Recombinant human Syk (amino acids 342-635), GST-Syk kinase fusion protein (Homo sapiens (Human), UniProt P43405). Kind of assay: In vitro Syk kinase test (Kinase Glo luminescence). The settings on record: read-out: SYK Enzyme IC50, GST-Syk 4 nM, ATP remaining after 60 min at room temperature.

Description: The catalytic activity of the GST-Syk kinase fusion protein was determined using the Kinase Glo® Luminescence Kinase test (Promega; V6712). In this homogeneous test the amount of ATP remaining after the kinase reaction is quantified by a luciferin-luciferase reaction using luminescence. The luminescence signal obtained correlates with the amount of ATP still present and thus correlates inversely with the activity of the protein kinase.
GST-Syk was diluted to 6.0 nM in the test buffer and 10 μl of this dilution were used in the kinase test (final concentration of Syk=4 nM in a total volume of 15 μl). […]
After 60 minutes, 10 μl Kinase-Glo® solution (Promega, Cat. #V6712) (heated to room temperature) were added to each well and incubation was continued for a further 15 minutes. The plates were read in a Microplate Scintillation and Luminescence Counter (Canberra Packard GmbH). […]
The output file of the “Counter” is a text file that contains the well number and measured counts in two columns. […] Based on this values the % inherent value for the measurement of each substance concentration was calculated using an “MS-Excel—VB macro”. […] The IC50 values were calculated from the % inhibition values using “GraphPadPrism” software (Version 5) (GraphPad Software Inc.).

On to `CNC(=O)c1c[nH]c2ccc(Nc3nccc(-c4ccccn4)n3)cc12` [Example 284], for which the IC50 (in general, the concentration at which inhibition is half-maximal) was found to be 0.0177 µM.
